Results taken from paper PMC9741652, “CRL2^ZER1/ZYG11B recognizes small N-terminal residues for degradation” (Nature Communications, 2022).
No end group written: not given here.

Legend:
[1] = target: T1, ZYG11B (residues 490–728) (Homo sapiens, UniProt Q9C0D3); assay: ITC of peptides titrated into ZYG11B; conditions: ZYG11B residues 490–728, 20 mM Tris-HCl pH 7.5, 150 mM NaCl, 16 °C, repeated at least twice, NB = no detectable binding
T1 construct: ZYG11B (residues 490–728) bearing an N-terminal SELF; 8xHis-SUMO (N, cleaved yes); made in house; host or cells: E. coli BL21 (DE3)
Source text: (§1) To further investigate the binding specificity of ZER1 and ZYG11B, we synthesized a set of eight-residue peptides (sequence: XFLHVGQD, X = any free Nt-residue), and carried out isothermal titration calorimetry (ITC) assays to quantify their binding affinities for ZER1 and ZYG11B. […] The rest of Nt-residues were disallowed for the binding to both ZER1 and ZYG11B (Fig. 1e, and Supplementary Fig. 1c–f).
(§2) ZYG11B (residues 490–728) bearing an N-terminal SELF generated by a modified pET28-MKH8SUMO (Addgene Plasmid #79526) vector and ZER1 (residues 469–766) bearing an N-terminal MEEL sequence generated by pNIC-CH (Addgene Plasmid #26117) vector were used to perform isothermal titration calorimetry (ITC) assays, as previously described. Proteins (concentration 50–70 μM) and peptides (concentration 0.5–1.5 mM) solutions were prepared in an ITC buffer consisting of 20 mM Tris-HCl (pH 7.5) and 150 mM NaCl. The ITC measurements were recorded at 16 °C with a MicroCal PEAQ-ITC instrument (Malvern Panalytical). 1.5 μL of each peptide (except for first injection using 0.5 μL peptide) was titrated into a 300 μL cell of the protein with 120 s incubation time between the injections. The reference power was controlled at […]. The acquired data were analyzed using MicroCal PEAQ-ITC Analysis Software version 1.30. Each experiment was repeated at least twice independently with similar results.

[2] = target: T2, ZER1 W552A (residues 469–766) (Homo sapiens, UniProt Q7Z7L7, W552A); assay: ITC of peptides with mutant ZER1 W552A; conditions: mutant ZER1 residues 469–766, NB = no detectable binding
T2 construct: wild-type (WT) and mutant ZER1 (residues 469–766) titrated with SFLHVGQD peptide; made in house; host or cells: E. coli BL21 (DE3)
Source text: (§3) To verify the functional importance of the residues involved in substrate binding, we generated single-point mutants of the binding pocket residues in ZER1 and ZYG11B. […] In addition, mutating the third-residue-interacting N553 into alanine caused a significant reduction in substrate binding (Fig. 3e, and Supplementary Fig. 4a–c).
as §2

[3] = target: T3, ZER1 E600A (residues 469–766) (Homo sapiens, UniProt Q7Z7L7, E600A); assay: ITC of peptides with mutant ZER1 E600A; type: binding; conditions: mutant ZER1 residues 469–766
T3 construct: wild-type (WT) and mutant ZER1 (residues 469–766) titrated with SFLHVGQD peptide; made in house; host or cells: E. coli BL21 (DE3)
Source text: as §3, §2

[4] = target: T4, ZER1 D556A (residues 469–766) (Homo sapiens, UniProt Q7Z7L7, D556A); assay: ITC of peptides with mutant ZER1 D556A; type: binding; conditions: mutant ZER1 residues 469–766
T4 construct: wild-type (WT) and mutant ZER1 (residues 469–766) titrated with SFLHVGQD peptide; made in house; host or cells: E. coli BL21 (DE3)
Source text: as §3, §2

[5] = target: T5, ZER1 N597A (residues 469–766) (Homo sapiens, UniProt Q7Z7L7, N597A); assay: ITC of peptides with mutant ZER1 N597A; conditions: mutant ZER1 residues 469–766, NB = no detectable binding
T5 construct: wild-type (WT) and mutant ZER1 (residues 469–766) titrated with SFLHVGQD peptide; made in house; host or cells: E. coli BL21 (DE3)
Source text: as §3, §2

ZER1 (residues 469–766) = target: T6, ZER1 (residues 469–766) (Homo sapiens, UniProt Q7Z7L7); assay: ITC of peptides titrated into ZER1; type: binding; conditions: wild-type ZER1 residues 469–766
T6 construct: made in house; host or cells: E. coli BL21 (DE3)
Source text: as §1, §2

T4 sequence (Q7Z7L7 469-766 D556A): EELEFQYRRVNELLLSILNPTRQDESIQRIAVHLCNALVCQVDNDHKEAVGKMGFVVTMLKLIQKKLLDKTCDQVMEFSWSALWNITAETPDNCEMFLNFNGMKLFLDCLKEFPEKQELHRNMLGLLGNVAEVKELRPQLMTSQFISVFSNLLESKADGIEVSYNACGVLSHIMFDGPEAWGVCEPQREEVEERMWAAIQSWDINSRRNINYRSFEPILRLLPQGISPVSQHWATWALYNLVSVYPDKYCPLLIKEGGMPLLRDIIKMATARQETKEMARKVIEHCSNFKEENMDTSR
T5 sequence (Q7Z7L7 469-766 N597A): as the sequence (Q7Z7L7 469-766 D556A) above, with A88D, N129A counted along it
T2 sequence (Q7Z7L7 469-766 W552A): as the sequence (Q7Z7L7 469-766 D556A) above, with W84A, A88D counted along it
T1 sequence (Q9C0D3 490-728): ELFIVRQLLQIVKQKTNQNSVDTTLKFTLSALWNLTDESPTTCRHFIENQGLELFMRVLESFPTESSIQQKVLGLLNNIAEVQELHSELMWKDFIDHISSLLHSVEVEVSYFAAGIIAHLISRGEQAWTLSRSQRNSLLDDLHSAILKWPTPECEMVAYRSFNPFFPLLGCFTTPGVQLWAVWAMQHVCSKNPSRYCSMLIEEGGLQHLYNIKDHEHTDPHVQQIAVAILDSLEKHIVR
T6 sequence (Q7Z7L7 469-766): as the sequence (Q7Z7L7 469-766 D556A) above, with A88D counted along it
T3 sequence (Q7Z7L7 469-766 E600A): as the sequence (Q7Z7L7 469-766 D556A) above, with A88D, E132A counted along it

Which Kd [1] does the source give for H-VFLHVGQD [VFLHVGQD] here?
Its Kd is greater than 100 µM.

For SFLHVGQD [SFLHVGQD], which Kd [2] is on record?
Its Kd is greater than 100 µM.

What about the Kd [3] of the same substance?
Its Kd is greater than 100 µM.

What about the Kd [4] of the same substance?
Its Kd is greater than 100 µM.

And the Kd [5]?
The Kd was greater than 100 µM.

Which “binding to ZER1, in words” value (ZER1 (residues 469–766)) does the source give for SGRGKQGGKA [H2A peptide] here?
Its value is “readily bind”.
